According to US3937818A, “Benzylamine narcotic antagonists” (American Home Products Corporation, priority 1974, dated 1976):

Each compound was assayed on Morphine Induced Loss of Righting Reflex (assay: Antagonism of Morphine Induced Loss of Righting Reflex). Conditions: Rattus norvegicus, im; rats; morphine base 75 mg/kg subcutaneously; antagonist intramuscularly 40 minutes after the morphine; measured at 20 minute intervals for 2 hours; read-out: ED50 (dose for 50 percent reversal of the loss of righting reflex).
Format: in vivo, male Charles River rats
Experimental: Groups of three male Charles River rats (160 to 200 g.) were dosed subcutaneously with morphine base at 75 mg/kg. The degree of narcosis was measured at 15 and 30 minutes after injection. Criterion was loss of righting reflex. Antagonists were administered 40 minutes after the morphine. The degree of antagonism was measured at 20 minute intervals for 2 hours. Nalorphine at 2 mg/kg. served as a positive control while one group of morphinized rats in each determination received no antagonist and served as negative controls. Compounds were dissolved in water or suspended in Tween-80 and water and were administered intramuscularly. Each dose of the antagonist was tested in a minimum of three experiments. At least three doses of each antagonist was used to determine the ED50. For each experiment the degree of reversal, by the antagonist, of the loss of righting reflex induced by morphine was calculated in the following manner. The total number of periods of loss of righting reflex in the experimental group was divided by the total number of periods of loss of righting reflex in the control group. This number was converted to percent and subtracted from 100 to give percent reversal of loss of righting reflex. The dose for which a 50 percent reversal of the loss of righting reflex was observed is the ED50.
`C=CCN1CC[C@]23c4c5ccc(O)c4O[C@H]2[C@@H](O)C=C[C@H]3[C@H]1C5` [Nalorphine, reference compound] showed an ED50 of 1 mg/kg. With `CCO[C@@H]1CCCC[C@@H]1C(c1cccc(O)c1)N(C)C` (stereo partly drawn) [(dl)-α-dimethylamino-α-(cis-2-ethoxycyclohexyl)-m-cresol] the ED50 was 2 mg/kg. `CN(C)C(c1cccc(O)c1)[C@@H]1CCCC[C@@H]1OCc1ccccc1` (single isomer, unassigned) [(l)-α-dimethylamino-α-(cis-2-benzyloxycyclohexyl)-m-cresol] showed an ED50 of 0.35 mg/kg. With `CN(C)C(c1cccc(O)c1)[C@@H]1CCCC[C@@H]1OCc1ccccc1` (stereo partly drawn) [(dl)-α-dimethylamino-α-(cis-2-benzyloxycyclohexyl)-m-cresol] the ED50 was 0.95 mg/kg.
